For one data set, the system named is FPP-induced hyperalgesia. The data set is described as follows: In vivo farnesyl pyrophosphate-induced inflammatory (hyperalgesia) model, Randall-Selitto. Conditions: Rattus norvegicus, adult male rats, read-out: In vivo efficacy (minimum effective dose (MED). The protocol:
In Vivo Farnesyl Pyrophosphate-Induced Inflammatory Model
The FPP-induced hyperalgesia model is a pharmacodynamic rat model which involves inducing pain by injecting FPP, an agonist of LPA5 receptor, into the plantar surface of the hindpaw.
Withdrawal responses were reassessed at 30 and 90 minutes after injection of FPP in the ipsilateral paw.

Data set [1] relates to bleomycin-induced scleroderma. Briefly: In vivo bleomycin induced scleroderma model. Also on record: species or system C57BL/6 mice. Conditions: for skin collagen content compared to the vehicle-treated group: skin samples Day 28. The protocol: In Vivo Bleomycin Induced Scleroderma Model
Adult male C57BL/6 mice, aged 8-10 weeks, were assigned to groups and allowed to acclimatise for a week. On Day −1, the back skin of the animals was shaved. From Day 0, animals were administered with 100 μl of a 1 mg/ml solution of bleomycin sulphate in phosphate buffered saline (PBS) by intradermal injection in the shaved skin. Injections were repeated in a one square centimeter area every other day for four weeks. A group of ten animals (Control group) was injected with an identical volume of PBS. Animals were weighed at the beginning of the experiment on Day 0 and then twice weekly throughout the study. At the end of the experiment, on Day 28, animals were culled and samples of back skin were taken for further analysis. All groups were n=10; the vehicle was distilled water and the administration volume was 10 ml/kg for oral gavage (p.o.); administration volume was 25 μl for topical application.
Bodyweights were graphed along with the standard error of the mean (SEM); Skin samples (two punch biopsies per animal, 4 mm in diameter each) samples were hydrolyzed and hydroxyproline content of the samples was determined from analysis in a semi-automated process using a continuous flow analyzer. Autoanalyser readings were calibrated against hydroxyproline standards and collagen content calculated.

In another data set the target is LPA5 receptor (Homo sapiens (Human), UniProt Q9H1C0). Conditions: reported, Williams et al. (2009); cited from earlier work.

Where a name gives a salt, the structure may show the parent alone. Read-outs that look alike come from different tables or passages of the source.

The source of these data is patent US10100018B2, “Amide derivatives as lysophosphatidic acid receptor antagonists” (Takeda Pharmaceutical Company Limited, priority 2013, dated 2018).

Sequence of LPA5 receptor (Q9H1C0 whole entry): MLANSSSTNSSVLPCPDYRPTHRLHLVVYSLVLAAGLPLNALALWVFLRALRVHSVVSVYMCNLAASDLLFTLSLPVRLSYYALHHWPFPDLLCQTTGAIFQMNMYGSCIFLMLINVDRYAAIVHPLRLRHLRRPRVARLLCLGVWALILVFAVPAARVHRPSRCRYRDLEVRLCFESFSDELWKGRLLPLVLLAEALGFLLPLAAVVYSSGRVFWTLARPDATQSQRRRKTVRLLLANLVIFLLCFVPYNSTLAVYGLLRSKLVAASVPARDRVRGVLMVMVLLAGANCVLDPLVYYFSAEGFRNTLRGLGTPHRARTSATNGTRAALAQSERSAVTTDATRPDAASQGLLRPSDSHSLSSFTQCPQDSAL

On to `Cc1ccccc1Oc1ccc(C(=O)N(Cc2ccccc2)Cc2ccc(C(=O)O)cc2)cc1` [Example 24, 4-((N-Benzyl-4-(o-tolyloxy)benzamido)methyl)benzoic acid], for which the minimal effective dose with FPP-induced hyperalgesia (route po) is 30 mg/kg.
`C[C@H]1C[C@H]2[C@@H]3CCC4=CC(=O)C=C[C@]4(C)[C@@]3(F)[C@@H](O)C[C@]2(C)[C@@]1(O)C(=O)CO` [Betamethasone, reference compound]: in data set [1] (administered from Day 0), the “skin collagen content compared to the vehicle-treated group” value is on record as “non-significant reduction”.
For `Cc1cccc(F)c1Oc1ccc(C(=O)N(Cc2ccc(C(=O)O)cc2)CC2CC2)cc1` [Example 40, 4-((N-(Cyclopropylmethyl)-4-(2-fluoro-6-methylphenoxy)-benzamido)methyl)benzoic acid], the minimal effective dose with FPP-induced hyperalgesia (route po) stood at 60 mg/kg.
On to `CC(C)CN(Cc1ccc(C(=O)O)cc1)C(=O)c1ccc(Oc2ccccc2F)cc1` [Example 4, 4-((4-(2-Fluorophenoxy)-N-isobutylbenzamido)methyl)benzoic acid], for which the values for the minimal effective dose with FPP-induced hyperalgesia (route ip) and in the data set with FPP-induced hyperalgesia (route po) were 1 mg/kg and at most 10 mg/kg, respectively.
`O=C(O)c1ccc(CN(Cc2ccccc2)C(=O)c2ccc(Oc3ccccc3F)cc2)cc1` [Example 11, 4-((N-Benzyl-4-(2-fluorophenoxy)benzamido)methyl)benzoic acid]: the minimal effective dose with FPP-induced hyperalgesia (route po) was at most 10 mg/kg.
Take `O=C(O)c1ccc(CN(CC2CC2)C(=O)c2ccc(Oc3ccccc3F)cc2)cc1` [Example 5, 4-((N-(Cyclopropylmethyl)-4-(2-fluorophenoxy)benzamido)-methyl)benzoic acid]: the “bodyweight loss compared to the vehicle-treated group” value in data set [1] (30 mg/kg p.o. BID, treated groups) was “did not differ”. In addition, the “skin collagen content compared to the vehicle-treated group” value in data set [1] (administered from Day 0) is “significant reduction”; in data set [1] (administered from Day 14 to Day 28, 30 mg/kg p.o. BID), “significant reduction”. For the same compound, the minimal effective dose was 0.3 mg/kg in the data set with FPP-induced hyperalgesia (route ip) and at most 10 mg/kg with FPP-induced hyperalgesia (route po).
For the compound `O=C(O)c1ccc(CN(CC(F)(F)F)C(=O)c2ccc(Oc3ccccc3F)cc2)cc1` [Example 3, 4-((4-(2-Fluorophenoxy)-N-(2,2,2-trifluoroethyl)benzamido)-methyl)benzoic acid], in the data set on FPP-induced hyperalgesia (route po), the minimal effective dose is at most 10 mg/kg.
For `CC(C)=CCC/C(C)=C/CC/C(C)=C/COP(=O)(O)OP(=O)(O)O` [Farnesyl pyrophosphate], on LPA5 receptor, the “selectivity over other LPA receptors” value is reported as 3 fold.
With `Cc1ccc(NC(=O)c2ccc(CN3CCN(C)CC3)cc2)cc1Nc1nccc(-c2cccnc2)n1` [Imatinib, Imatinib mesylate, reference compound], the “skin collagen content compared to the vehicle-treated group” value in data set [1] (administered from Day 0) is listed as “non-significant reduction”.
For `CC(C)CCN(Cc1ccc(C(=O)O)cc1)C(=O)c1ccc(Oc2ccccc2F)cc1` [Example 8, 4-((4-(2-Fluorophenoxy)-N-isopentylbenzamido)methyl)benzoic acid], the minimal effective dose in the data set on FPP-induced hyperalgesia (route po) was 100 mg/kg.
Still for that read-out and setting: as for `COc1ccccc1Oc1ccc(C(=O)N(Cc2ccc(C(=O)O)cc2)CC(F)F)cc1` [Example 29, 4-((N-(2,2-Difluoroethyl)-4-(2-methoxyphenoxy)benzamido)-methyl)benzoic acid], the figure is 3 mg/kg; as for `COc1ccccc1Oc1ccc(C(=O)N(Cc2ccc(C(=O)O)cc2)CC2CC2)cc1` [Example 31, 4-((N-(Cyclopropylmethyl)-4-(2-methoxyphenoxy)benzamido)-methyl)benzoic acid], 1 mg/kg.
